Molecular target: T1, Human OAT3 (SLC22A8) (Homo sapiens, UniProt Q8TCC7)
T1 construct: host or cells: HEK-293
T1 sequence (Q8TCC7 1-542): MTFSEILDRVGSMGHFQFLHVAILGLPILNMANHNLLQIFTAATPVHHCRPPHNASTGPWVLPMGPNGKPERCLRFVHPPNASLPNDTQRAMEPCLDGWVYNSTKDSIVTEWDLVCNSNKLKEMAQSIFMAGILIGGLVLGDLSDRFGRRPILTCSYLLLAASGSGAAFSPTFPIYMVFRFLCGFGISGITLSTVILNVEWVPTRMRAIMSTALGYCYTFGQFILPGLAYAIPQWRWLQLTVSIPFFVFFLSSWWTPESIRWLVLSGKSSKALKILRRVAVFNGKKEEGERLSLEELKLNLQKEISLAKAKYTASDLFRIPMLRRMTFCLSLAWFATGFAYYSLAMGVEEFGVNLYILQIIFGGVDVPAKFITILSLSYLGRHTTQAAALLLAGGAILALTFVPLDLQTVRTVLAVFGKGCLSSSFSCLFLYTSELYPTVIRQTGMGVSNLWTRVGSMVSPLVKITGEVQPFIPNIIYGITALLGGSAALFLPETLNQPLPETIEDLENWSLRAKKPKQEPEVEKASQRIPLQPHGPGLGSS
Experiment: OAT3-mediated cellular uptake in overexpressing HEK-293 cells
Type: cell-based
Procedure: Cells were grown in DMEM (Gibco 4196, high glucose, without sodium pyruvate) supplemented with MEM non-essential amino acids and 10% fetal bovine serum. Cells were re-fed with fresh medium after attachment (4–6 h post-seeding). Cell were plated at a density of 4 × 10^5/well in 24-well plates coated with poly-D-lysine. Transporter assays were conducted in 400 µL of HBSS supplemented with 10 mM Hepes, pH 7.4
The known probe substrates used as positive controls were 3 μM chlorothiazide for OAT1, 2 μM estrone-3-sulfate for OAT3, 10 µM [^3H]gabapentin for LAT1, 50 µM [^3H]Gly-Sar for PepT1, 500 µM thiophene-2-glyoxylic acid for MCT1. The known inhibitors used as controls for each transporter were 100 μM diclofenac for OAT1 and OAT3, 10 µM JPH203 for LAT1 and 200 µM losartan for PepT1. All incubations were in triplicate and contained 1% (OAT1 and OAT3) or 0.5% DMSO (LAT, PepT1 and MCT1). The duration of uptake was 5 min for OAT1 and OAT3, 3 min for LAT1 and PepT1 and 1 min for MCT1. Assays were performed at 37 °C with no shaking, except MCT1 at room temperature. To determine uptake due to the overexpressed transporter per se, uptake was taken as the difference between accumulation between transfected and nontransfected cells in parallel experiments at the same concentration and time. To terminate uptake the plate was placed on ice and cells washed twice with ice-cold transport buffer. […]

CC(=O)N[C@@H](CC(C)C)C(=O)O [N-acetyl-L-leucine]
Vmax OAT3 uptake (Michaelis-Menten fit): 138 | substrate of OAT3 (uptake) (pH 7.4, 5 min): substrate

Source: article PMC8338929, “Acetylation turns leucine into a drug by membrane transporter switching” (Scientific Reports, 2021)
